Laboratory results taken from patent US11439707B2, “Hypocrellin derivative substituted both in a peri-position and in 2-position by amino, preparation method, and application thereof” (priority 2017, dated 2022).

Key:
[1] = absorption spectrum (maximum absorption wavelength, molar extinction coefficient); type: physicochemical
[2] = singlet oxygen efficiency test, reference rose bengal; type: physicochemical

| Structure (SMILES) | maximum absorption wavelength [1] [nm] | molar extinction coefficient [1] | singlet oxygen yield [2] [%] |
| --- | --- | --- | --- |
| COc1c(O)c2c(=O)cc(OC)c3c4c(OC)cc(=O)c5c(NCCCC(=O)NCCS(=O)(=O)O)c(NCCCC(=O)NCCS(=O)(=O)O)c6c(c(c1CC(C)=C6)c23)c54 [HC-8a-NH—C2-SO3H] | 620 | 31,000 M^−1cm^−1 | 32 |
| COc1c2c3c4c(c(NCC(=O)O)c(=O)c5c(O)cc(OC)c(c6c(OC)cc(NCC(=O)O)c(c1=O)c63)c54)C=C(C)C2 [HC-7d] | 626 | 26,000 M^−1cm^−1 | 25 |
| COCCOC(=O)C1CCCC(Nc2c(NC3CCCC(C(=O)OCCOC)C3)c3c(=O)cc(OC)c4c5c(OC)cc(=O)c6c(O)c(OC)c7c(c(c2C=C(C)C7C(C)=O)c34)c65)C1 (stereo not drawn) [HB-15a-PEG1] | 624 | 30,000 M^−1cm^−1 | 30 |
| COCCOCCOCCOCCOCCOCCOCCC(=O)OCC1(Nc2c(O)c3c(=O)cc(OC)c4c5c(OC)cc(=O)c6c(NC7(COC(=O)CCOCCOCCOCCOCCOCCOCCOC)CC7)c(OC)c7c(c(c2C=C(C)C7C(C)=O)c34)c65)CC1 (stereo not drawn) [HB-35b-PEG6] | 624 | 30,500 M^−1cm^−1 | 32 |
| COc1c(O)c2c(=O)cc(OC)c3c4c(OC)cc(=O)c5c(NCc6cccc[n+]6C)c(NCc6cccc[n+]6C)c6c(c(c1C(C(C)=O)C(C)=C6)c23)c54 (stereo not drawn) [HB-38a-N^+] | 620 | 22,000 M^−1cm^−1 | 18 |
| COc1c2c3c4c(c(NCc5cccc[n+]5C)c(=O)c5c(O)cc(OC)c(c6c(OC)cc(NCc7cccc[n+]7C)c(c1=O)c63)c54)C=C(C)C2C(C)=O (stereo not drawn) [HB-38d-N^+] | 626 | 21,500 M^−1cm^−1 | 20 |
| COc1c2c3c4c(c(NCC(=O)O)c(=O)c5c(O)cc(OC)c(c6c(OC)cc(NCCCC(=O)O)c(c1=O)c63)c54)C=C(C)C2C(C)=O (stereo not drawn) [HB-43d] | 623 | 26,500 M^−1cm^−1 | 24 |
| COc1c(NC2CCC(C(=O)O)C2)c2c(=O)cc(OC)c3c4c(OC)cc(=O)c5c(O)c(NC6CCC(C(=O)O)C6)c6c(c(c1C(C(C)=O)C(C)=C6)c23)c54 (stereo not drawn) [HB-19b] | 620 | 25,000 M^−1cm^−1 | 22 |
| COC(=O)C1CCC(CNc2c(O)c3c(=O)cc(OC)c4c5c(OC)cc(=O)c6c(NCC7CCC(C(=O)OC)CC7)c(OC)c7c(c(c2C=C(C)C7C(C)=O)c34)c65)CC1 (stereo not drawn) [HB-13b-AcE] | 623 | 27,000 M^−1cm^−1 | 24 |
| COCCOCCOCCOCCOCCOCCOCCOCCOCCOCCOCCOCCOCCC(=O)OCCNc1c2c3c4c(c(OC)c(=O)c5c(O)cc(OC)c(c6c(OC)cc(NCCOC(=O)CCOCCOCCOCCOCCOCCOCCOCCOCCOCCOCCOCCOCCOC)c(c1=O)c63)c54)CC(C)=C2 [HC-2c-PEG12] | 630 | 32,500 M^−1cm^−1 | 34 |
| COCCOCCOCCOCCOCCOCCOCCOCCOCCOCCOCCOCCOC(=O)C1CCC(Nc2c3c4c5c(c(OC)c(=O)c6c(O)cc(OC)c(c7c(OC)cc(NC8CCC(C(=O)OCCOCCOCCOCCOCCOCCOCCOCCOCCOCCOCCOCCOC)CC8)c(c2=O)c74)c65)C(C(C)=O)C(C)=C3)CC1 (stereo not drawn) [HB-14c-PEG12] | 628 | 33,500 M^−1cm^−1 | 38 |
| COc1c(O)c2c(=O)cc(OC)c3c4c(OC)cc(=O)c5c(NCCS(=O)(=O)O)c(NCCS(=O)(=O)O)c6c(c(c1C(C(C)=O)C(C)=C6)c23)c54 (stereo not drawn) [HB-11a-C2-SO3H] | 620 | 30,000 M^−1cm^−1 | 32 |
| COc1c2c3c4c(c(NCCO)c(=O)c5c(O)cc(OC)c(c6c(OC)cc(NCCO)c(c1=O)c63)c54)C=C(C)C2C(C)=O (stereo not drawn) [HB-2d] | 629 | 30,000 M^−1cm^−1 | 26 |
| COc1c(NCc2cccc[n+]2C)c2c(=O)cc(OC)c3c4c(OC)cc(=O)c5c(O)c(NCc6cccc[n+]6C)c6c(c(c1C(C(C)=O)C(C)=C6)c23)c54 (stereo not drawn) [HB-38b-N^+] | 620 | 21,000 M^−1cm^−1 | 20 |
| COCCOCCNC(=O)C1CCC(CNc2c(NCC3CCC(C(=O)NCCOCCOC)CC3)c3c(=O)cc(OC)c4c5c(OC)cc(=O)c6c(O)c(OC)c7c(c(c2C=C(C)C7)c34)c65)CC1 (stereo not drawn) [HC-13a-NH-PEG1] | 624 | 30,000 M^−1cm^−1 | 32 |
| COCCOCCOCCOCCOCCOCCOCCOCCOCCOCCOCCOCCOCCC(=O)OC1CCC(Nc2c3c4c5c(c(OC)c(=O)c6c(O)cc(OC)c(c7c(OC)cc(NC8CCC(OC(=O)CCOCCOCCOCCOCCOCCOCCOCCOCCOCCOCCOCCOCCOC)CC8)c(c2=O)c74)c65)C(C(C)=O)C(C)=C3)CC1 (stereo not drawn) [HB-17c-PEG12] | 632 | 33,500 M^−1cm^−1 | 38 |

| Structure (SMILES) | maximum absorption wavelength [1] [nm] | molar extinction coefficient [1] | singlet oxygen yield [2] [%] |
| --- | --- | --- | --- |
| COCCOC(=O)CCCNc1c(NCCCC(=O)OCCOC)c2c(=O)cc(OC)c3c4c(OC)cc(=O)c5c(O)c(OC)c6c(c(c1C=C(C)C6C(C)=O)c23)c54 (stereo not drawn) [HB-8a-PEG1] | 621 | 30,500 M^−1cm^−1 | 28 |
| COc1c2c3c4c(c(NCCCC(=O)NCCCCS(=O)(=O)O)c(=O)c5c(O)cc(OC)c(c6c(OC)cc(NCCCC(=O)NCCCCS(=O)(=O)O)c(c1=O)c63)c54)C=C(C)C2 [HC-8d-NH—C4-SO3H] | 626 | 30,500 M^−1cm^−1 | 32 |
| COc1c2c3c4c(c(NCCC(=O)O)c(=O)c5c(NCCC(=O)O)cc(OC)c(c6c(OC)cc(O)c(c1=O)c63)c54)C=C(C)C2C(C)=O (stereo not drawn) [HB-10c] | 622 | 33,000 M^−1cm^−1 | 38 |
| COc1c(O)c2c(=O)cc(OC)c3c4c(OC)cc(=O)c5c(NCCCC(=O)O)c(NCC(=O)O)c6c(c(c1C(C(C)=O)C(C)=C6)c23)c54 (stereo not drawn) [HB-43a] | 613 | 26,500 M^−1cm^−1 | 28 |
| COc1c(O)c2c(=O)cc(OC)c3c4c(OC)cc(=O)c5c(NCCNCCOCCO)c(NCCNCCOCCO)c6c(c(c1C(C(C)=O)C(C)=C6)c23)c54 (stereo not drawn) [HB-5a-PEG1] | 622 | 29,500 M^−1cm^−1 | 28 |
| COc1c(NCCO)c2c(=O)cc(OC)c3c4c(OC)cc(=O)c5c(O)c(NCCO)c6c(c(c1C(C(C)=O)C(C)=C6)c23)c54 (stereo not drawn) [HB-2b] | 627 | 31.500 M⁻¹ cm⁻¹ | 25 |
| COc1c2c3c4c(c(NCCC5CCC(O)CC5)c(=O)c5c(NCCC6CCC(O)CC6)cc(OC)c(c6c(OC)cc(O)c(c1=O)c63)c54)C=C(C)C2C(C)=O (stereo not drawn) [HB-18c] | 624 | 23,500 M^−1cm^−1 | 23 |
| COCCOCCOCCOCCOCCOCCOCCOCCOCCOCCOCCOCCOCCOCCOCCOCCOC(=O)C1CCC(CNc2c3c4c5c(c(OC)c(=O)c6c(NCC7CCC(C(=O)OCCOCCOCCOCCOCCOCCOCCOCCOCCOCCOCCOCCOCCOCCOCCOCCOC)CC7)cc(OC)c(c7c(OC)cc(O)c(c2=O)c74)c65)C(C(C)=O)C(C)=C3)CC1 (stereo not drawn) [HB-13d-PEG16] | 624 | 30,500 M^−1cm^−1 | 33 |
| COc1c(O)c2c(=O)cc(OC)c3c4c(OC)cc(=O)c5c(NCCS(=O)(=O)OC)c(NCCS(=O)(=O)OC)c6c(c(c1C(C(C)=O)C(C)=C6)c23)c54 (stereo not drawn) [HB-12a] | 621 | 23,500 M^−1cm^−1 | 20 |
| COc1c(NCCNCCOCCOCCOCCOCCO)c2c(=O)cc(OC)c3c4c(OC)cc(=O)c5c(O)c(NCCNCCOCCOCCOCCOCCO)c6c(c(c1C(C(C)=O)C(C)=C6)c23)c54 (stereo not drawn) [HB-5b-PEG4] | 625 | 30,500 M^−1cm^−1 | 31 |
| COc1c2c3c4c(c(NC5(CO)CC5)c(=O)c5c(NC6(CO)CC6)cc(OC)c(c6c(OC)cc(O)c(c1=O)c63)c54)C=C(C)C2C(C)=O (stereo not drawn) [HB-35c] | 619 | 32,500 M^−1cm^−1 | 34 |
| COCCOCCOC(=O)C1CCCC1Nc1c(NC2CCCC2C(=O)OCCOCCOC)c2c(=O)cc(OC)c3c4c(OC)cc(=O)c5c(O)c(OC)c6c(c(c1C=C(C)C6C(C)=O)c23)c54 (stereo not drawn) [HB-21a-PEG1] | 624 | 31,500 M^−1cm^−1 | 30 |
| COCCOCCOCCOCCOCCOCCOCCC(=O)N1CCC(CNc2c(O)c3c(=O)c(Br)c(OC)c4c5c(OC)cc(=O)c6c(NCC7CCN(C(=O)CCOCCOCCOCCOCCOCCOCCOC)CC7)c(OC)c7c(c(c2C=C(C)C7C(C)=O)c34)c65)CC1 (stereo not drawn) [HB-31b-Br-PEG6] | 624 | 31,500 M^−1cm^−1 | 31 |
| COCCOCCOCCOCCOCCOCCOCCOCCOCCNC(=O)C1CCC(CNc2c3c4c5c(c(OC)c(=O)c6c(NCC7CCC(C(=O)NCCOCCOCCOCCOCCOCCOCCOCCOCCOC)CC7)cc(OC)c(c7c(OC)cc(O)c(c2=O)c74)c65)C(C(C)=O)C(C)=C3)CC1 (stereo not drawn) [HB-13d-NH-PEG8] | 628 | 31,500 M^−1cm^−1 | 32 |
| COc1c(NCCS(=O)(=O)OC)c2c(=O)cc(OC)c3c4c(OC)cc(=O)c5c(O)c(NCCS(=O)(=O)OC)c6c(c(c1C(C(C)=O)C(C)=C6)c23)c54 (stereo not drawn) [HB-12b] | 621 | 22,500 M^−1cm^−1 | 22 |
| COC(=O)C(CO)Nc1c2c3c4c(c(OC)c(=O)c5c(NC(CO)C(=O)OC)cc(OC)c(c6c(OC)cc(O)c(c1=O)c63)c54)C(C(C)=O)C(C)=C2 (stereo not drawn) [HB-24d] | 621 | 20,500 M^−1cm^−1 | 20 |
